Source: US6274715A, “Tricyclic erythromycin derivatives” (priority 1997, dated 2001)
In brackets after ≈: the same amount, converted by molar mass. Read-outs that look alike come from different tables or passages of the source.

Key:
Format in all cases: cell-based
[1] = system: STAPHYLOCOCCUS AUREUS ATCC 6538P; assay: In vitro antibacterial activity, MIC, BHI agar dilution; conditions: S. aureus ATCC 6538P, 35-37° C., 20 to 24 hours, unit assumed
[2] = system: STAPHYLOCOCCUS AUREUS A5177; assay: as above
[3] = system: STAPHYLOCOCCUS AUREUS A-5278; assay: as above; conditions: S. aureus A-5278, unit assumed
[4] = system: STAPHYLOCOCCUS AUREUS CMX 642A; assay: as above; conditions: S. aureus CMX 642A, unit assumed
[5] = system: STAPHYLOCOCCUS AUREUS NCTC10649M; assay: as above; conditions: S. aureus NCTC10649M, unit assumed
[6] = system: STAPHYLOCOCCUS AUREUS CMX 553; assay: as above; conditions: S. aureus CMX 553, unit assumed
[7] = system: STAPHYLOCOCCUS AUREUS 1775; assay: as above; conditions: S. aureus 1775, unit assumed
[8] = system: STAPHYLOCOCCUS EPIDERMIDIS 3519; conditions: S. epidermidis 3519; BHI agar; unit assumed
EN[…] ATCC 8043 = assay: In vitro antibacterial activity, MIC, BHI agar dilution; conditions: E. faecium ATCC 8043, unit assumed
Protocol: (§1) Representative compounds of the present invention were assayed in vitro for antibacterial activity as follows: Twelve petri dishes containing successive aqueous dilutions of the test compound mixed with 10 mL of sterilized Brain Heart Infusion (BHI) agar (Difco 0418-01-5) were prepared. Each plate was inoculated with 1:100 (or 1:10 for slow-growing strains, such as Micrococcus and Streptococcus) dilutions of up to 32 different microorganisms, using a Steers replicator block. The inoculated plates were incubated at 35-37° C. for 20 to 24 hours. In addition, a control plate, using BHI agar containing no test compound, was prepared and incubated at the beginning and end of each test.
(§2) An additional plate containing a compound having known susceptibility patterns for the organisms being tested and belonging to the same antibiotic class as the test compound was also prepared and incubated as a further control, as well as to provide test-to-test comparability. Erythromycin A was used for this purpose.
(§3) After incubation, each plate was visually inspected. The minimum inhibitory concentration (MIC) was defmed as the lowest concentration of drug yielding no growth, a slight haze, or sparsely isolated colonies on the inoculum spot as compared to the growth control.

M[…] ATCC 4698 = assay: as above; conditions: M. luteus ATCC 4698, unit assumed
Protocol: as §1, §2, §3

M[…] ATCC 9341 = assay: as above; conditions: M. luteus ATCC 9341, unit assumed
Protocol: as §1, §2, §3

STR[…] 508 = assay: as above; conditions: S. agalactiae CMX 508, unit assumed
Protocol: as §1, §2, §3

[9] = system: STREPTOCOCCUS BOVIS A-5169; assay: as above; conditions: S. bovis A-5169, unit assumed
[10] = system: STREPTOCOCCUS PYOGENES EES61; assay: as above; conditions: S. pyogenes EES61, unit assumed
[11] = system: STREPTOCOCCUS PYOGENES 930; assay: as above; conditions: S. pyogenes 930, unit assumed
ESCHERICHIA COLI JUHL = conditions: E. coli JUHL; BHI agar; unit assumed
ESCHERICHIA COLI DC-2 = assay: In vitro antibacterial activity, MIC, BHI agar dilution; conditions: E. coli DC-2, unit assumed
ESCHERICHIA COLI H560 = assay: as above; conditions: E. coli H560, unit assumed
ESCHERICHIA COLI KNK 437 = conditions: unit assumed
[12] = system: ENTEROBACTER AEROGENES ATCC 13048; assay: In vitro antibacterial activity, MIC, BHI agar dilution; conditions: E. aerogenes ATCC 13048, unit assumed
[13] = system: KLEBSIELLA PNEUMONIAE ATCC 8045; assay: as above; conditions: K. pneumoniae ATCC 8045, unit assumed
[14] = system: PROVIDENCIA STUARTII CMX 640; conditions: P. stuartii CMX 640; BHI agar; unit assumed
[15] = system: PSEUDOMONAS AERUGINOSA BMH10; assay: In vitro antibacterial activity, MIC, BHI agar dilution; conditions: P. aeruginosa BMH10, unit assumed
[16] = system: PSEUDOMONAS AERUGINOSA 5007; assay: as above; conditions: P. aeruginosa 5007, unit assumed
[17] = system: PSEUDOMONAS AERUGINOSA K799/WT; assay: as above; conditions: P. aeruginosa K799/WT, unit assumed
[18] = system: PSEUDOMONAS AERUGINOSA K799/61; assay: as above; conditions: P. aeruginosa K799/61, unit assumed
PSEUDOMONAS CEPACIA 296I = assay: as above; conditions: P. cepacia 296I, unit assumed
[19] = system: PSEUDOMONAS AERUGINOSA DPHD-5263; assay: as above; conditions: P. aeruginosa DPHD-5263, unit assumed
[20] = system: PSEUDOMONAS AERUGINOSA DPHD-2862; assay: as above; conditions: P. aeruginosa DPHD-2862, unit assumed
CANDIDA ALBICANS CCH 442 = assay: as above; conditions: C. albicans CCH 442, unit assumed
[21] = system: STREPTOCOCCUS PYOGENES PIU 2548; assay: as above; conditions: S. pyogenes PIU 2548, unit assumed
ESCHERICHIA COLI SS = assay: as above; conditions: E. coli SS, unit assumed

Row | SMILES | MIC [1] [µg/mL] | MIC [3] [µg/mL] | MIC [4] [µg/mL] | MIC [5] [µg/mL] | MIC [6] [µg/mL] | MIC [7] [µg/mL] | MIC [8] [µg/mL] | MIC (EN[…] ATCC 8043) [µg/mL] | MIC (M[…] ATCC 4698) [µg/mL] | MIC (M[…] ATCC 9341) [µg/mL] | MIC (STR[…] 508) [µg/mL] | MIC [9] [µg/mL] | MIC [10] [µg/mL] | MIC [11] [µg/mL] | MIC (ESCHERICHIA COLI H560) [µg/mL] | MIC [13] [µg/mL] | MIC [14] [µg/mL] | MIC [15] [µg/mL] | MIC [16] [µg/mL] | MIC [17] [µg/mL] | also measured
1 | CC[C@H]1OC(=O)[C@H](C)C(=O)[C@H](C)[C@@H](O[C@@H]2O[C@H](C)C[C@H](N(C)C)[C@H]2O)[C@](C)(OC)C[C@@H](C)C2=N[C@@H](Cc3ccccc3)CN3C(=O)O[C@@]1(C)[C@H]3[C@H]2C [Example 4] | 0.2 (≈ 0.275 µM) | > 100 | 0.78 (≈ 1.07 µM) | 0.78 (≈ 1.07 µM) | 0.78 (≈ 1.07 µM) | > 100 | 0.78 (≈ 1.07 µM) | 0.1 (≈ 0.137 µM) | 0.39 (≈ 0.536 µM) | 0.1 (≈ 0.137 µM) | 0.005 (≈ 0.00687 µM) | 0.02 (≈ 0.0275 µM) | 0.05 (≈ 0.0687 µM) | > 100 | 25 (≈ 34.3 µM) | > 100 | > 100 | > 100 | > 100 | > 100 | MIC ([2]; S. aureus A5177, unit assumed): 0.2 µg/mL (≈ 0.275 µM); MIC (ESCHERICHIA COLI JUHL): > 100 µg/mL; MIC (ESCHERICHIA COLI DC-2): 100 µg/mL (≈ 137 µM); MIC (ESCHERICHIA COLI KNK 437; E. coli KNK 437, BHI agar): > 100 µg/mL; MIC [12]: 100 µg/mL (≈ 137 µM); MIC [18]: 1.56 µg/mL (≈ 2.14 µM); MIC (PSEUDOMONAS CEPACIA 296I): > 100 µg/mL; MIC [19]: > 100 µg/mL; MIC [20]: > 100 µg/mL; MIC (CANDIDA ALBICANS CCH 442): 100 µg/mL (≈ 137 µM)
2 | CC[C@H]1OC(=O)[C@H](C)C(=O)[C@H](C)[C@@H](O[C@@H]2O[C@H](C)C[C@H](N(C)C)[C@H]2O)[C@](C)(OC)C[C@@H](C)C2=NC[C@@H](Cc3ccccc3)N3C(=O)O[C@@]1(C)[C@H]3[C@H]2C [Example 6] | 0.1 (≈ 0.137 µM) | > 100 | 0.1 (≈ 0.137 µM) | 0.1 (≈ 0.137 µM) | 0.2 (≈ 0.275 µM) | > 100 | 0.1 (≈ 0.137 µM) | 0.1 (≈ 0.137 µM) | 0.1 (≈ 0.137 µM) | 0.02 (≈ 0.0275 µM) | 0.02 (≈ 0.0275 µM) | 0.01 (≈ 0.0137 µM) | 0.02 (≈ 0.0275 µM) | > 100 | 3.1 (≈ 4.26 µM) | 12.5 (≈ 17.2 µM) | 100 (≈ 137 µM) | 50 (≈ 68.7 µM) | 100 (≈ 137 µM) | 25 (≈ 34.3 µM) | MIC ([2]; S. aureus A5177): 0.05 µg/mL (≈ 0.0687 µM); MIC [21]: 0.39 µg/mL (≈ 0.536 µM); MIC (ESCHERICHIA COLI SS): 0.02 µg/mL (≈ 0.0275 µM); MIC (ESCHERICHIA COLI KNK 437): 6.2 µg/mL (≈ 8.52 µM); MIC [18]: 0.39 µg/mL (≈ 0.536 µM); MIC (PSEUDOMONAS CEPACIA 296I): 50 µg/mL (≈ 68.7 µM); MIC [19]: 12.5 µg/mL (≈ 17.2 µM); MIC [20]: 100 µg/mL (≈ 137 µM); MIC (CANDIDA ALBICANS CCH 442): > 100 µg/mL
